According to patent publication US8648061B2, “Use of polyunsaturated fatty acids for the primary prevention of major cardiovascular events” (Pro Aparts Investimentos E. Consultoria LDA., priority 2001, dated 2014):

Tested on: non-anesthetized guinea pigs
Assay: preliminary tests: minimum lethal dose of ouabain
Type: in vivo, guinea pig
Conditions: intravenously administered over 3 minutes
Experimental: The experimental sudden death model was obtained by cardiac arrest induced by intravenous (i.v.) administration of a cardiotoxic agent (ouabain). In preliminary tests, various doses of ouabain were administered to non-anesthetized guinea pigs of both sexes of weight 300-380 g, in order to determine the minimum lethal dose for 100% of the animals within 15 minutes from i.v. injection (240 mg/kg, intravenously administered over 3 minutes).

With `C[C@@H]1O[C@@H](O[C@H]2C[C@@H](O)[C@]3(CO)[C@H]4[C@H](O)C[C@]5(C)[C@@H](C6=CC(=O)OC6)CC[C@]5(O)[C@@H]4CC[C@]3(O)C2)[C@H](O)[C@H](O)[C@H]1O` [ouabain] the “minimum lethal dose for 100% of the animals within 15 minutes from i.v. injection” value was 240 mg/kg.
